From patent publication US5232917A, “Methods, compositions, and compounds for allosteric modulation of the GABA receptor by members of the androstane and pregnane series” (priority 1991, dated 1993) come the findings set out here.

Like-named read-outs stand apart in the source and are kept apart here.

Experiment [1] relates to metrazol induced convulsions. The experiment is described as follows: Inhibition of metrazol induced convulsions (Table 2). Conditions: Mus musculus; inhibition of metrazol induced convulsions; read-out: Anti-Metrazol ED50. The format is in vivo, mice. The protocol: Experiments were also performed to determine the physiological relevance of these interactions by measuring the ability of the compound of and used in the invention to modulate TBPS-induced convulsions in Swiss-Webster mice. […] The time to onset of myoclonus (presence of forelimb clonic activity) induced by TBPS was determined by observing each mouse for a period of 45 minutes. Significant differences between the time to onset in control mice vs. steroid-treated mice were determined by Student's t-test. […] The number of animals with tonic and/or clonic convulsions was recorded. In the maximal electroshock test, 50 mA of current at 60 Hz was delivered through corneal electrodes for 200 msec to induce tonic seizure. […] The ED50 (the dose at which the half-maximal effect occurs) was determined for each screen.
Adult male CFI mice (20-30g) were used in these studies. […] Percent protection against metrazol-induced seizures was plotted against time after administration of the compound. […] Ten to twelve mice were used per dose of test drug. […] The number of animals with tonic and/or clonic convulsions was recorded. The ability of the steroid to abolish the tonic component was defined as the endpoint. Sedative potential was determined by a rotorod test where the number of mice staying on a rotating (6 rpm) rod for ≥1 min. in each of three trials was determined.

Experiment [2] has as its target GABA receptor-chloride ionophore complex (GR complex). The experiment is described as follows: [35S]TBPS binding modulation assay.
A further experiment concerns open-field activity. The experiment is described as follows: Open-field activity test. The format is in vivo, mice (male N.I.H. Swiss-Webster). Conditions: for total distance, open-field: 20 mg/kg, 10 min, vehicle 2004.6 ± 134.6; for effect on open-field activity: steroids 20 mg/kg, diazepam 10 mg/kg. The source says: The light/dark transition test (Crawley and Goodwin, 1980) is based on the observation that rodents naturally tend to explore novel environments, but open, brightly lit arenas are aversive to the rodents and inhibit exploratory behavior (Christmas and Maxwell, 1970; File, 1980). […] Similar to the light/dark transition test, the open-field test measures the antagonism between the tendency to explore a novel environment and the tendency to remain still in an aversive environment (brightly lit arena). […] The open-field test provides a simple, non-punished assessment of the potential anxiolytic properties of novel compounds. Finally, 3α-OH-DHP was tested for anxiolytic properties in a Vogel conflict paradigm. The ability of BZs to attenuate the suppression of behavior by punishment in conflict paradigms is well established (Gellar et al., 1962; Vogel et al., 1971).
Male N.I.H. Swiss-Webster mice (Harlan) weighing 15-20 g were used in all experiments. The mice were housed 4/cage in polyethylene cages with sawdust bedding. The colony room was environmentally controlled (22° C.) with a 12 hr. light/dark cycle (0600-1800 hrs.). The mice had free access to food and water. The experiments were run from 0700-1500 hrs. and groups were counterbalanced for time of day effects.
As a secondary measure of anxiolytic effects, naive mice were placed in the center of a large, brightly lit plexiglass box (42×42×30.5 cm) and the total distance traveled was measured during a 10 min. test period. […] The Digiscan Activity Monitor (Omnitech Electronics, Columbus, Ohio) includes 16 photobeams that surround the box. The activity monitor is linked to a computer through a Digiscan Analyzer (Omnitech Electronics) and the data is analyzed using the Integrated Lab Animal Monitoring System (Omnitech Electronics). The mice were administered drugs as described for light/dark transitions.
2-Hydroxypropyl β-cyclodextrin Diazepam and chlordiazepoxide are available from Sigma, Co. (St. Louis, Mo.). CGS-8216 was obtained from Ciba-Geigy (Summit, N.J.). All drugs were dissolved in 20% β-cyclodextrin in water and sonicated overnight. All drugs were administered intraperitoneally in a volume of 100 μL/20 g. CGS-8216 was administered subcutaneously in a volume of 100 μL/20 g.
The vehicle control data were analyzed across test days using an 1-way analysis of variance (ANOVA). […] The dose-response curves were then analyzed using an 1-way ANOVA, followed by Dunnett's t-test for individual comparisons between doses and control. The open-field and habituated locomotor data were analyzed using ANOVA followed by Dunnett's t-test. […] All data is expressed as the mean±S.E.M.

The target of the next experiment is T1, progesterone receptor (Bos taurus, UniProt F1N712).
T1 construct: from tissue; host or cells: bovine uterus cytosol
T1 sequence (F1N712 1-914): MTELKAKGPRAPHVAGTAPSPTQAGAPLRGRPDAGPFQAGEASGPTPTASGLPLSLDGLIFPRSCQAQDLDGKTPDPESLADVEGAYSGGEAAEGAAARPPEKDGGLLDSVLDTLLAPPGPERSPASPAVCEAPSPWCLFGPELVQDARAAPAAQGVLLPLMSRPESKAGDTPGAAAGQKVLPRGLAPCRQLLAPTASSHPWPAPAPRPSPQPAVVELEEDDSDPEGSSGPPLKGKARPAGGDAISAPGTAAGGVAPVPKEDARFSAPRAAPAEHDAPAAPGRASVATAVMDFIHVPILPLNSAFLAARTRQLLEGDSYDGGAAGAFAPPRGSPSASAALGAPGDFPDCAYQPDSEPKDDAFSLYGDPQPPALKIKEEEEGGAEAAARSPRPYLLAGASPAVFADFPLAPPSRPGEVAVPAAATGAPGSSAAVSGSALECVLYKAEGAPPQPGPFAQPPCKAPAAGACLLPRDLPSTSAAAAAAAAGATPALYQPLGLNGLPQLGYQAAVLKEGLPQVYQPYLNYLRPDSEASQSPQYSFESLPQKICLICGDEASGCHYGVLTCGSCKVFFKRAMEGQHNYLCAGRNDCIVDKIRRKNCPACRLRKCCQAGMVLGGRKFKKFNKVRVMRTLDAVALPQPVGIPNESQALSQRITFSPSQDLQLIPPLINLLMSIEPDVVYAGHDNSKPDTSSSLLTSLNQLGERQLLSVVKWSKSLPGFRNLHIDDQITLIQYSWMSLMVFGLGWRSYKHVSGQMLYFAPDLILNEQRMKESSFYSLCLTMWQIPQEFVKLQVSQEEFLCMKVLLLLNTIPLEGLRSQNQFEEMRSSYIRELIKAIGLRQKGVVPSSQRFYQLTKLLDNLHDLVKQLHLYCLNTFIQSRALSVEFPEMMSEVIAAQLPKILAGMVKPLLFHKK
The experiment is described as follows: Inhibition of 3H-progesterone binding to bovine uteral progesterone receptors. Summed up: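 Bovine uterine cytosol served as the progesterone receptor source. Compounds were scored by their inhibition of ^3H-progesterone binding.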

The mark [3] stands for this setting: read-out: IC50, inhibition of [35S]-TBPS binding, +5 μM GABA, in the presence of 5 μM GABA.
Where [4] appears, read: read-out: % of inhibition of 3H-progesterone binding, A, competitor 10^-5 M, 0.15 nM 3H-progesterone.
[5] abbreviates: read-out: % of inhibition of 3H-progesterone binding, A, competitor 10^-6 M, 0.15 nM 3H-progesterone.
The mark [6] stands for this setting: read-out: % of inhibition of 3H-progesterone binding, B, competitor 10^-5 M, 0.25 nM 3H-progesterone.
The mark [7] stands for this setting: read-out: % of inhibition of 3H-progesterone binding, B, competitor 10^-6 M, 0.25 nM 3H-progesterone.

As to `C[C@]12CC[C@@H](O)C[C@@H]1CC[C@@H]1[C@@H]2CC[C@]2(C)[C@@H](C(=O)CO)CC[C@@H]12` [Example 5α-THDOC, 3α,21-dihydroxy-5α-pregnan-20-one], the ED50 in experiment [1] was 8 mg/kg. In experiment [2] (setting [3]), the IC50 amounted to 80 nM. In addition, in experiment [2] (saturating concentrations of test compound), the “Max. Inhib., maximal % of specifically bound [35S]-TBPS displaced” value was determined as 100%. Moreover, the “total distance, open-field” value with open-field activity is reported as 7328.4 ± 769.5 cm. Also, the “effect on open-field activity” value in the experiment on open-field activity was “significant (p<0.01) increases in activity”. Moreover, the inhibition at 10 µM is 35% on progesterone receptor (setting [4]) and 28% on progesterone receptor (setting [6]). The inhibition at 1 µM on progesterone receptor (setting [5]) was 13%; on progesterone receptor (setting [7]), 5%.
Turning to `CC(=O)[C@H]1CC[C@H]2[C@@H]3CC[C@H]4C[C@H](O)CC[C@]4(C)[C@H]3CC[C@]12C` [Example 3α-OH-DHP, 3α-hydroxy-5α-pregnan-20-one], the ED50 in experiment [1] was 5 mg/kg. The concentration for half-maximal inhibition (IC50) was 38 nM in experiment [2] (setting [3]) and 230 nM in experiment [2] (read-out: IC50, inhibition of [35S]-TBPS binding, No GABA, washed synaptoneurosomes, no GABA added). In the experiment with open-field activity, the “total distance, open-field” value is listed as 5344.9 ± 754.5 cm. The “effect on open-field activity” value in the experiment on open-field activity was “significant (p<0.01) increases in activity”. The inhibition at 10 µM on progesterone receptor (setting [4]) stood at 41%; on progesterone receptor (setting [6]), 40%. Also, the inhibition at 1 µM was determined as 14% on progesterone receptor (setting [5]) and 2% on progesterone receptor (setting [7]).
